Measured values published in patent US20030130200A1, “Small peptides and methods for treatment of asthma and inflammation” (Hisatek, LLC, priority 1997, published 2003).
“Also recorded” adds a separate entry of the source. Where no end group is shown, it is not given here. The star is where a group is joined. For = O=C*

Test system: OVA-sensitized/challenged mice
Assay: OVA allergen-induced airway inflammation mouse model, 28-day protocol, HK-X i.n. before challenges on days 25, 26, 27
Type: in vivo, mouse (BALB/c)
Excerpt: The above-described murine model reproduces key features of human asthma. Late-phase allergen-specific pulmonary disease was induced in normal BALB/c mice using ovalbumin (OVA) as allergen. One protocol includes immunization of mice with i.p. OVA on days 1 and 14, and intranasal (i.n.) administration of OVA on days 14, 25, 26. and 27.
In a mouse model of allergen-induced airway inflammation, the role of mast cell in airway eosinophil infiltration, mucus release, and hyper-responsiveness to methacholine was examined.
Materials were used as described above. Mice received an i.p. injection of 0.2 ml (100 ug) of OVA complexed with aluminum potassium sulfate (alum) on day 0 and 14. On days 14, 25, 26, and 27, mice were anesthetized with 0.2 ml i.p. of ketamine (0.44 mg/ml)/xylazine (6.3 mg/ml) in normal saline before receiving an intranasal (i.n.) dose of 100 ug OVA in 0.05 ml normal saline on days 25, 26, and 27. Lung tissue was obtained 24 hours after the last i.n. challenge on day 28. The control group received normal saline with alum i.p. on days 0 and 14 and normal saline without alum i.n. on days 14, 25, 26, and 27. To assess the effect of HK-X inhibition on OVA induced asthma, HK-X (10 ug/ml) was given i.n. 30 minutes before each i.n. challenge on days 25, 26, and 27.
After tying off the left lung at the mainstem bronchus, the right lung was […] three times with 0.4 ml of normal saline. Bronchoalveolar lavage (BAL) fluid cells from a 0.05 ml aliquot of the pooled sample wee counted using a hemocytometer and the remaining fluid centrifuged at 4° C. for 10 minutes at 200 g. After resuspension of the cell pellet in normal saline containing 10% BSA, BAL cell smears were made on glass slides. To stain eosinophils, dried slides were stained with Discombe's diluting fluid (0.05% aqueous eosin and 5% (v/v) acetone in distilled water) for 5-8 minutes, rinsed with water for 0.5 minutes and counterstained with […] for 2 minutes
Following BAL, the trachea and left lung (upper and lower lobes) were obtained and fixed in 10% buffered formalin solution at 20° C. forlS hours. After the tissues were processed and embeded in paraffin, the tissues were cut into 5 μm sections and stained with Discombe's solution and counterstained with methylene blue as described above or stained with Hematoxylin and eosin. The eosinophil number per unit airway area (2200 μm^2) was determined by morphometry as previously described. Airway mucus was identified by a variety of staining methods, i.e., methylene blue, Hematoxylin and eosin, mucicarmine, toluidine blue, alcian blue, and alcian blue/periodic acid Schiff (PAS) reaction. […] The degree of mucus plugging of the airways (0.5-0.8 mm in diameter) also was assessed by morphometry. […]

f-Met-Leu-Phe-Phe (For-MLFF) [Example 9]
Cellular infiltration during asthmatic attack (histopathology) (10 μg HK-X intranasally 30 minutes prior to challenge, FIG. 9): reduces the cellular infiltration | Eosinophil influx into the lung tissue and BAL fluid (OVA sensitized/challenged mice, FIGS. 8A, 9A, 10A): markedly reduced | Airway mucus release / secretion (OVA sensitized/challenged mice, histopathology FIGS. 8A, 9A, 10A, listed as HK-X): prevented airway mucus release; also recorded: blocked the airway mucus release; also recorded: prevents the airway mucus secretion; also recorded: reduces the mucus secretion in airways | Reduction of eosinophil influx into the lung interstitium (morphometric analysis) (p<0.006 compared to OVA without HK-X, FIG. 11): 90%
